Test results taken from ChEMBL document CHEMBL4387754, “Chemical modification-mediated optimisation of bronchodilatory activity of mepenzolate, a muscarinic receptor antagonist with anti-inflammatory activity” (Bioorg Med Chem, 2019).

Tests used:
[1] = Plasma concentration in ICR mouse at 7.5 mg/kg, iv measured after 1 min by RP-HPLC analysis; format: ADME, organism-based
[2] = Plasma concentration in ICR mouse at 10 mg/kg administered intratracheally measured after 1 min by RP-HPLC analysis; format: ADME, organism-based; settings: inhaled or intranasal

SMILES: C[N+]1(C)[C@@H]2C[C@@H](OC(=O)C(O)(c3cccs3)c3cccs3)C[C@H]1[C@@H]1O[C@@H]12.[Br-]
- concentration at 1 min [1]: 40000 ng/mL
- concentration at 1 min [2]: 3000 ng/mL
